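Five compound concentrations were applied to cells in 96-well plates for 48 hours; endpoints were derived by simple linear interpolation of the resulting dose-response curve. At the TGI there is no net growth.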
Experiments:
Experiment in all cases: NCI anticancer screen, dose series, 48 h
M14 melanoma = tested on: M14 melanoma
SR leukemia = tested on: SR leukemia
MALME-3M melanoma = tested on: MALME-3M melanoma
UACC-257 melanoma = tested on: UACC-257 melanoma
NCI-H522 lung = tested on: NCI-H522 lung
EKVX NSCLC = tested on: EKVX NSCLC
T-47D breast = tested on: T-47D breast
BT-549 breast = tested on: BT-549 breast
CAKI-1 renal = tested on: CAKI-1 renal
CCRF-CEM leukemia = tested on: CCRF-CEM leukemia
MOLT-4 leukemia = tested on: MOLT-4 leukemia
SK-MEL-5 melanoma = tested on: SK-MEL-5 melanoma
HL-60(TB) leukemia = tested on: HL-60(TB) leukemia
OVCAR-3 ovarian = tested on: OVCAR-3 ovarian
HT29 colon = tested on: HT29 colon
MDA-MB-231 breast = tested on: MDA-MB-231 breast
SK-OV-3 ovarian = tested on: SK-OV-3 ovarian
NCI-H23 lung = tested on: NCI-H23 lung
HOP-92 NSCLC = tested on: HOP-92 NSCLC
SF-539 CNS = tested on: SF-539 CNS
IGROV1 ovarian = tested on: IGROV1 ovarian
HCC-2998 colon = tested on: HCC-2998 colon
ACHN renal = tested on: ACHN renal
SF-268 CNS = tested on: SF-268 CNS
U251 CNS = tested on: U251 CNS
MCF7 breast = tested on: MCF7 breast
SW-620 colon = tested on: SW-620 colon
UO-31 renal = tested on: UO-31 renal
MDA-MB-435 = tested on: MDA-MB-435
HCT-15 colon = tested on: HCT-15 colon
TK-10 renal = tested on: TK-10 renal
786-0 renal = tested on: 786-0 renal
NCI/ADR-RES ovarian = tested on: NCI/ADR-RES ovarian
PC-3 prostate = tested on: PC-3 prostate
LOX IMVI melanoma = tested on: LOX IMVI melanoma
NCI-H226 lung = tested on: NCI-H226 lung
K-562 leukemia = tested on: K-562 leukemia
UACC-62 melanoma = tested on: UACC-62 melanoma
OVCAR-8 ovarian = tested on: OVCAR-8 ovarian
SNB-75 CNS = tested on: SNB-75 CNS
SF-295 CNS = tested on: SF-295 CNS
HS 578T breast = tested on: HS 578T breast
HCT-116 colon = tested on: HCT-116 colon
OVCAR-4 ovarian = tested on: OVCAR-4 ovarian
SK-MEL-28 melanoma = tested on: SK-MEL-28 melanoma
RPMI-8226 leukemia = tested on: RPMI-8226 leukemia
SNB-19 CNS = tested on: SNB-19 CNS
COLO 205 colon = tested on: COLO 205 colon
NCI-H460 lung = tested on: NCI-H460 lung
A549 NSCLC = tested on: A549 NSCLC
OVCAR-5 ovarian = tested on: OVCAR-5 ovarian
RXF 393 renal = tested on: RXF 393 renal
KM12 colon = tested on: KM12 colon
SN12C renal = tested on: SN12C renal
HOP-62 NSCLC = tested on: HOP-62 NSCLC
MDA-N = tested on: MDA-N
DU-145 prostate = tested on: DU-145 prostate
A498 renal = tested on: A498 renal
SK-MEL-2 melanoma = tested on: SK-MEL-2 melanoma

Measured: TGI

COC(=O)NC1=Nc2ccccc2C(=O)NN1
> 100 µM: all assays above
